These are literature values, as cited in PubChem BioAssay AID1259409 (Chemical Carcinogenesis Research Information System (CCRIS), 2018).

Molecules are shown by their SMILES.

The series deals with rodent chemically induced tumor inhibition, incidence and multiplicity. The series can be described thus: CCRIS tumor inhibitor studies. Conditions: Route [Inhibitor]: ORAL, Species: RAT.

Take `CCCCCCCCCCCCCCCC(=O)CC(=O)CCCCCCCCCCCCCCC`: the “tumour outcome (control, treated, inhibition, significance)” value was 7/14 (50%), 7/15 (47%), 6%, not significant (Carcinogen: 2,2'-DIHYDROXY-DI-N-PROPYLNITROSAMINE, 53609-64-6, N-ETHYL-N-HYDROXYETHYLNITROSAMINE, 13147-25-6, 3,2'-DIMETHYL-4-AMINO-, Carcinogen: 2,2'-DIHYDROXY-DI-N-PROPYLNITROSAMINE, 53609-64-6, N-ETHYL-N-HYDROXYETHYLNITROSAMINE, 13147-25-6, 3,2'-DIMETHYL-4-AMINO-, Dose [Inhibitor]: 0, 0.2% IN DIET FOR 32 WK BEGINNING 1 WK POST CARCINOGEN TREATMENT (STUDY DURATION: 36 WK), Strain/Sex: F344/MALE, Target Tissue: Type of Lesion: LARGE INTESTINE: ADENOMA, Dose [Carcinogen]: 1000 MG/KG BW DHPN TWICE, 1500 MG/KG BW EHEN TWICE, 75 MG/KG BW 3 TIMES ADMINISTERED OVER FIRST 3 WK, Promoter: NONE USED); 3/14 (21%), 2/15 (13%0, 38%, not significant (Carcinogen: 2,2'-DIHYDROXY-DI-N-PROPYLNITROSAMINE, 53609-64-6, N-ETHYL-N-HYDROXYETHYLNITROSAMINE, 13147-25-6, 3,2'-DIMETHYL-4-AMINO-, Carcinogen: 2,2'-DIHYDROXY-DI-N-PROPYLNITROSAMINE, 53609-64-6, N-ETHYL-N-HYDROXYETHYLNITROSAMINE, 13147-25-6, 3,2'-DIMETHYL-4-AMINO-, Dose [Inhibitor]: 0, 0.2% IN DIET FOR 32 WK BEGINNING 1 WK POST CARCINOGEN TREATMENT (STUDY DURATION: 36 WK), Strain/Sex: F344/MALE, Target Tissue: Type of Lesion: LARGE INTESTINE: CARCINOMA, Dose [Carcinogen]: 1000 MG/KG BW DHPN TWICE, 1500 MG/KG BW EHEN TWICE, 75 MG/KG BW 3 TIMES ADMINISTERED OVER FIRST 3 WK, Promoter: NONE USED); 6/14 (43%), 1/15 (7%), 84%, p<0.05 (Carcinogen: 2,2'-DIHYDROXY-DI-N-PROPYLNITROSAMINE, 53609-64-6, N-ETHYL-N-HYDROXYETHYLNITROSAMINE, 13147-25-6, 3,2'-DIMETHYL-4-AMINO-, Carcinogen: 2,2'-DIHYDROXY-DI-N-PROPYLNITROSAMINE, 53609-64-6, N-ETHYL-N-HYDROXYETHYLNITROSAMINE, 13147-25-6, 3,2'-DIMETHYL-4-AMINO-, Dose [Inhibitor]: 0, 0.2% IN DIET FOR 32 WK BEGINNING 1 WK POST CARCINOGEN TREATMENT (STUDY DURATION: 36 WK), Strain/Sex: F344/MALE, Target Tissue: Type of Lesion: LIVER: HEPATOCELLULAR CARCINOMA, Dose [Carcinogen]: 1000 MG/KG BW DHPN TWICE, 1500 MG/KG BW EHEN TWICE, 75 MG/KG BW 3 TIMES ADMINISTERED OVER FIRST 3 WK, Promoter: NONE USED); 7/14 (50%), 6/15 (40%), 20%, not significant (Carcinogen: 2,2'-DIHYDROXY-DI-N-PROPYLNITROSAMINE, 53609-64-6, N-ETHYL-N-HYDROXYETHYLNITROSAMINE, 13147-25-6, 3,2'-DIMETHYL-4-AMINO-, Carcinogen: 2,2'-DIHYDROXY-DI-N-PROPYLNITROSAMINE, 53609-64-6, N-ETHYL-N-HYDROXYETHYLNITROSAMINE, 13147-25-6, 3,2'-DIMETHYL-4-AMINO-, Dose [Inhibitor]: 0, 0.2% IN DIET FOR 32 WK BEGINNING 1 WK POST CARCINOGEN TREATMENT (STUDY DURATION: 36 WK), Strain/Sex: F344/MALE, Target Tissue: Type of Lesion: LUNG: ADENOMA, Dose [Carcinogen]: 1000 MG/KG BW DHPN TWICE, 1500 MG/KG BW EHEN TWICE, 75 MG/KG BW 3 TIMES ADMINISTERED OVER FIRST 3 WK, Promoter: NONE USED); 1/14 (7%), 3/15 (20%, -186%, not significant (Carcinogen: 2,2'-DIHYDROXY-DI-N-PROPYLNITROSAMINE, 53609-64-6, N-ETHYL-N-HYDROXYETHYLNITROSAMINE, 13147-25-6, 3,2'-DIMETHYL-4-AMINO-, Carcinogen: 2,2'-DIHYDROXY-DI-N-PROPYLNITROSAMINE, 53609-64-6, N-ETHYL-N-HYDROXYETHYLNITROSAMINE, 13147-25-6, 3,2'-DIMETHYL-4-AMINO-, Dose [Inhibitor]: 0, 0.2% IN DIET FOR 32 WK BEGINNING 1 WK POST CARCINOGEN TREATMENT (STUDY DURATION: 36 WK), Strain/Sex: F344/MALE, Target Tissue: Type of Lesion: LUNG: CARCINOMA, Dose [Carcinogen]: 1000 MG/KG BW DHPN TWICE, 1500 MG/KG BW EHEN TWICE, 75 MG/KG BW 3 TIMES ADMINISTERED OVER FIRST 3 WK, Promoter: NONE USED); 3/14 (21%), 3/15 (20%), 5%, not significant (Carcinogen: 2,2'-DIHYDROXY-DI-N-PROPYLNITROSAMINE, 53609-64-6, N-ETHYL-N-HYDROXYETHYLNITROSAMINE, 13147-25-6, 3,2'-DIMETHYL-4-AMINO-, Carcinogen: 2,2'-DIHYDROXY-DI-N-PROPYLNITROSAMINE, 53609-64-6, N-ETHYL-N-HYDROXYETHYLNITROSAMINE, 13147-25-6, 3,2'-DIMETHYL-4-AMINO-, Dose [Inhibitor]: 0, 0.2% IN DIET FOR 32 WK BEGINNING 1 WK POST CARCINOGEN TREATMENT (STUDY DURATION: 36 WK), Strain/Sex: F344/MALE, Target Tissue: Type of Lesion: THYROID GLAND: ADENOMA, Dose [Carcinogen]: 1000 MG/KG BW DHPN TWICE, 1500 MG/KG BW EHEN TWICE, 75 MG/KG BW 3 TIMES ADMINISTERED OVER FIRST 3 WK, Promoter: NONE USED). Moreover, the “tumour outcome (control, treated, inhibition, significance)” value is, setting by setting: (Carcinogen: 2,2'-DIHYDROXY-DI-N-PROPYLNITROSAMINE, 53609-64-6, N-ETHYL-N-HYDROXYETHYLNITROSAMINE, 13147-25-6, 3,2'-DIMETHYL-4-AMINO-, Carcinogen: 2,2'-DIHYDROXY-DI-N-PROPYLNITROSAMINE, 53609-64-6, N-ETHYL-N-HYDROXYETHYLNITROSAMINE, 13147-25-6, 3,2'-DIMETHYL-4-AMINO-, Dose [Inhibitor]: 0, 0.2% IN DIET FOR 32 WK BEGINNING 1 WK POST CARCINOGEN TREATMENT (STUDY DURATION: 36 WK), Strain/Sex: F344/MALE, Target Tissue: Type of Lesion: URINARY BLADDER: CARCINOMA, Dose [Carcinogen]: 1000 MG/KG BW DHPN TWICE, 1500 MG/KG BW EHEN TWICE, 75 MG/KG BW 3 TIMES ADMINISTERED OVER FIRST 3 WK, Promoter: NONE USED) 1/14 (7%), 1/15 (7%), 0%, not significant; (Carcinogen: 2,2'-DIHYDROXY-N-PROPYLNITROSAMINE, 53609-64-6, N-ETHYL-N-HYDROXYETHYL- NITROSAMINE, 13147-25-6, 3,2'-DIMETHYL-4-AMI, Carcinogen: 2,2'-DIHYDROXY-N-PROPYLNITROSAMINE, 53609-64-6, N-ETHYL-N-HYDROXYETHYL- NITROSAMINE, 13147-25-6, 3,2'-DIMETHYL-4-AMI, Dose [Inhibitor]: 0, 0.2% IN DIET BEGINNING 1 WK POST LAST CARCINOGEN DOSE AND CONTINUING FOR 32 WK (STUDY DURATION: 36 WK), Strain/Sex: F344/MALE, Target Tissue: Type of Lesion: LUNG: ADENOMA, Dose [Carcinogen]: 1000 MG/KG IP DHPN 2X , 1500 MG/KG GAV EHEN 2X AND 75 MG/KG SC DMAB 3X GIVEN OVER THE INITIAL 3 WK PERIOD AT 3-4 D INTER, Promoter: NONE USED) 7/14 (50%), 6/15 (40%), 20%, not calculated; (Carcinogen: 2-AMINO-1-METHYL-6-PHENYLIMIDAZO[4,5-B]PYRIDINE [105650-23-5], Dose [Inhibitor]: 0.1% IN DIET FOR 54 WK (STUDY DURATION: 54 WK), Strain/Sex: F344/DUCRJ/FEMALE, Target Tissue: Type of Lesion: COLON: ADENOMA OR ADENOCARCINOMA, Dose [Carcinogen]: 0.02% IN DIET FOR 54 WK (STUDY DURATION: 54 WK), Promoter: NONE) 3/20 (15%), 3/20 (15%), 0%, not significant; (Carcinogen: 2-AMINO-1-METHYL-6-PHENYLIMIDAZO[4,5-B]PYRIDINE [105650-23-5], Dose [Inhibitor]: 0.1% IN DIET FOR 54 WK (STUDY DURATION: 54 WK), Strain/Sex: F344/DUCRJ/FEMALE, Target Tissue: Type of Lesion: MAMMARY GLAND: ADENOMA OR ADENOCARCINOMA, Dose [Carcinogen]: 0.02% IN DIET FOR 54 WK (STUDY DURATION: 54 WK), Promoter: NONE) 8/20 (40%), 3/20 (15%), 63%, not significant. Where the note is “Carcinogen: 2,2'-DIHYDROXY-DI-N-PROPYLNITROSAMINE, 53609-64-6, N-ETHYL-N-HYDROXYETHYLNITROSAMINE, 13147-25-6, 3,2'-DIMETHYL-4-AMINO-, Carcinogen: 2,2'-DIHYDROXY-DI-N-PROPYLNITROSAMINE, 53609-64-6, N-ETHYL-N-HYDROXYETHYLNITROSAMINE, 13147-25-6, 3,2'-DIMETHYL-4-AMINO-, Dose [Inhibitor]: 0, 0.2% IN DIET FOR 32 WK BEGINNING 1 WK POST CARCINOGEN TREATMENT (STUDY DURATION: 36 WK), Strain/Sex: F344/MALE, Target Tissue: Type of Lesion: URINARY BLADDER: PAPILLOMA, Dose [Carcinogen]: 1000 MG/KG BW DHPN TWICE, 1500 MG/KG BW EHEN TWICE, 75 MG/KG BW ADMINISTERED OVER FIRST 3 WK, Promoter: NONE USED”, the outcome is on record as 0/14 (0%), 3/15 (20%), -100%, not significant.
